Measured values reported in ChEMBL document CHEMBL4680150, “Design, synthesis and biological evaluation of vincamine derivatives as potential pancreatic β-cells protective agents for the treatment of type 2 diabetes mellitus” (Eur J Med Chem, 2020).
pEC50: −log10 of the molar value. Calls of active or inactive are those of the source.

Columns and labels:
INS-1 832/13 [1] = assay: Activation of AKT in STZ-induced rat INS-1 832/13 cells assessed as increase in Akt phosphorylation at 5 to 20 uM after 24 hrs by AlphaLISA assay; conditions: filed as activator, dose 5-20 µM
INS-1 832/13 [2] = assay: Activation of PI3K/Akt signalling pathway in STZ-induced rat INS-1 832/13 cells assessed as decrease in caspase 9 protein expression at 5 to 20 uM after 24 hrs by Western blot analysis; conditions: filed as activator, dose 5-20 µM
INS-1 832/13 [3] = assay: Activation of PI3K/Akt signalling pathway in STZ-induced rat INS-1 832/13 cells assessed as increase in phosphorylation of GSK3beta at Ser9 residue at 5 to 20 uM after 24 hrs by Western blot analysis; conditions: filed as activator, dose 5-20 µM
INS1(832/13) [4] = assay: Cytoprotective activity against STZ-induced toxicity in rat INS-1 832/13 cells assessed as mass of apoptotic cells at 5 uM by Annexin V-FITC staining based flow cytometric analysis (reference value: 40.8%); type: functional
INS1(832/13) [5] = assay: Cytoprotective activity against STZ-induced rat INS-1 832/13 cells assessed as increase in IRS2 protein expression at 5 to 20 uM after 24 hrs Western blot analysis; type: functional, cell-based; conditions: dose 5-20 µM
INS1(832/13) [6] = assay: Cytoprotective activity against STZ-induced toxicity in rat INS-1 832/13 cells at 10 uM incubated for 24 hrs by MTT assay; type: functional, cell-based
INS1(832/13) [7] = assay: Cytoprotective activity in rat INS-1 832/13 cells assessed as inhibition of STZ-induced apoptosis incubated for 24 hrs by MTT assay; type: functional, cell-based; conditions: INS-1 832/13, 24 h
INS-1 832/13 [8] = assay: Activation of PI3K/Akt signalling pathway in STZ-induced rat INS-1 832/13 cells assessed as decrease in p21 mRNA expression at 5 to 20 uM after 24 hrs by RT-PCR analysis; conditions: filed as activator, dose 5-20 µM
INS-1 832/13 [9] = assay: Activation of PI3K/Akt signalling pathway in STZ-induced rat INS-1 832/13 cells assessed as decrease in Bim mRNA expression at 5 to 20 uM after 24 hrs by RT-PCR analysis; conditions: filed as activator, dose 5-20 µM
INS1(832/13) [10] = assay: Potency index, ratio of vincamine EC50 to test compound EC50 for cytoprotective activity in rat INS-1 832/13 cells assessed as inhibition of STZ-induced apoptosis; type: functional
INS1(832/13) [11] = assay: Cytoprotective activity against STZ-induced toxicity in rat INS-1 832/13 cells assessed as mass of apoptotic cells at 10 uM by Annexin V-FITC staining based flow cytometric analysis (reference value: 40.8%); type: functional
INS-1 832/13 [12] = assay: Activation of PI3K/Akt signalling pathway in STZ-induced rat INS-1 832/13 cells assessed as decrease in cleaved-caspase 3 protein expression at 5 to 20 uM after 24 hrs by Western blot analysis; conditions: filed as activator, dose 5-20 µM
INS1(832/13) [13] = assay: Cytoprotective activity against STZ-induced rat INS-1 832/13 cells assessed as increase in IRS2 mRNA expression at 5 to 20 uM after 24 hrs RT-PCR analysis; type: functional, cell-based; conditions: dose 5-20 µM
INS-1 832/13 [14] = assay: Activation of PI3K/Akt signalling pathway in STZ-induced rat INS-1 832/13 cells assessed as decrease in caspase 3 protein expression at 5 to 20 uM after 24 hrs by Western blot analysis; conditions: filed as activator, dose 5-20 µM
INS-1 832/13 [15] = assay: Activation of AKT in STZ-induced rat INS-1 832/13 cells assessed as increase in Akt phosphorylation at 5 to 20 uM after 24 hrs by Western blot analysis; conditions: filed as activator, dose 5-20 µM
INS1(832/13) [16] = assay: Cytoprotective activity against STZ-induced toxicity in rat INS-1 832/13 cells assessed as mass of apoptotic cells at 20 uM by Annexin V-FITC staining based flow cytometric analysis (reference value: 40.8%); type: functional
INS-1 832/13 [17] = assay: Activation of AKT in STZ-induced rat INS-1 832/13 cells assessed as increase in Akt phosphorylation at 20 uM after 24 hrs in presence of wortmannin by Western blot analysis
INS-1 832/13 [18] = assay: Activation of PI3K/Akt signalling pathway in STZ-induced rat INS-1 832/13 cells assessed as increase in phosphorylation of FOX01 at Ser256 residue at 5 to 20 uM after 24 hrs by Western blot analysis; conditions: filed as activator, dose 5-20 µM
INS1(832/13) [19] = assay: Cytoprotective activity in rat INS-1 832/13 cells assessed as inhibition of STZ-induced apoptosis at 20 uM incubated for 24 hrs in presence of wortmannin by MTT assay; type: functional, cell-based
INS1(832/13) [20] = assay: Cytoprotective activity in rat INS-1 832/13 cells assessed as inhibition of STZ-induced apoptosis at 20 uM incubated for 24 hrs by MTT assay relative to control; type: functional

Compound	pEC50 (INS1(832/13) [7])	Activity (INS1(832/13) [20])	other results
CC[C@@]12C=C(CO)n3c4c(c5ccccc53)CCN(CCC1)[C@H]42	6.66		Activity (INS-1 832/13 [1]): Active; Activity (INS-1 832/13 [2]): Active; Activity (INS-1 832/13 [3]): Active; Activity (INS1(832/13) [4]): 32%; Activity (INS1(832/13) [5]): Active; Activity (INS1(832/13) [6]): Active; Activity (INS-1 832/13 [8]): Active; Activity (INS-1 832/13 [9]): Active; Ratio EC50 (INS1(832/13) [10]): 2; Activity (INS1(832/13) [11]): 26.1%; Activity (INS-1 832/13 [12]): Active; Activity (INS1(832/13) [13]): Active; Activity (INS-1 832/13 [14]): Active; Activity (INS-1 832/13 [15]): Active; Activity (INS1(832/13) [16]): 19.1%; Activity (INS-1 832/13 [17]): inactive; Activity (INS-1 832/13 [18]): Active; Activity (INS1(832/13) [19]): inactive
CC[C@@]12C=C(COC(N)=O)n3c4c(c5ccccc53)CCN(CCC1)[C@H]42	5.06	Active	
CC[C@@]12C=C(COC(C)=O)n3c4c(c5ccccc53)CCN(CCC1)[C@H]42	6.44	Active	
CCC(=O)OCC1=C[C@]2(CC)CCCN3CCc4c(n1c1ccccc41)[C@@H]32	5.16	Active	
CC[C@@]12C=C(CN)n3c4c(c5ccccc53)CCN(CCC1)[C@H]42	5.12	Active	
CC[C@@]12C=C(CNC)n3c4c(c5ccccc53)CCN(CCC1)[C@H]42	5.80	Active	
CCCCN(CCCC)C(=O)C1=C[C@]2(CC)CCCN3CCc4c(n1c1ccccc41)[C@@H]32		inactive	
CC[C@@]12C=C(COC(=O)NC(C)C)n3c4c(c5ccccc53)CCN(CCC1)[C@H]42	4.97	Active	
CCCCNC(=O)OCC1=C[C@]2(CC)CCCN3CCc4c(n1c1ccccc41)[C@@H]32		inactive	
CCNC(=O)OCC1=C[C@]2(CC)CCCN3CCc4c(n1c1ccccc41)[C@@H]32	5.77	Active	
CC[C@@]12C=C(C(=O)NC)n3c4c(c5ccccc53)CCN(CCC1)[C@H]42	6.18	Active	
CC[C@@]12C=C(COC(=O)NCCO)n3c4c(c5ccccc53)CCN(CCC1)[C@H]42	5.27	Active	
CC[C@@]12C=C(CNC(=O)c3ccccc3)n3c4c(c5ccccc53)CCN(CCC1)[C@H]42		inactive	
CCN(CC)C(=O)C1=C[C@]2(CC)CCCN3CCc4c(n1c1ccccc41)[C@@H]32	4.94	Active	
CC[C@@]12C=C(C(=O)Nc3ccccc3)n3c4c(c5ccccc53)CCN(CCC1)[C@H]42		inactive	
CC[C@@]12C=C(C(N)=O)n3c4c(c5ccccc53)CCN(CCC1)[C@H]42	4.99	inactive	
CCCNC(=O)OCC1=C[C@]2(CC)CCCN3CCc4c(n1c1ccccc41)[C@@H]32	5.23	Active	
CCCN(CCC)C(=O)C1=C[C@]2(CC)CCCN3CCc4c(n1c1ccccc41)[C@@H]32	5.15	Active	
CCCC(=O)NCC1=C[C@]2(CC)CCCN3CCc4c(n1c1ccccc41)[C@@H]32	5.06	Active	
CCCC(=O)OCC1=C[C@]2(CC)CCCN3CCc4c(n1c1ccccc41)[C@@H]32	5.42	Active	
CC[C@@]12C=C(CNC(=O)Nc3ccccc3)n3c4c(c5ccccc53)CCN(CCC1)[C@H]42		inactive	
CCNC(=O)NCC1=C[C@]2(CC)CCCN3CCc4c(n1c1ccccc41)[C@@H]32		inactive	
CC[C@@]12C=C(C(=O)N(C)C)n3c4c(c5ccccc53)CCN(CCC1)[C@H]42		inactive	
CC[C@@]12C=C(C(=O)NCCCO)n3c4c(c5ccccc53)CCN(CCC1)[C@H]42	4.99	Active	
CC[C@@]12C=C(C(=O)Nc3ccc(OC)cc3)n3c4c(c5ccccc53)CCN(CCC1)[C@H]42		inactive	

Compound	pEC50 (INS1(832/13) [7])	Activity (INS1(832/13) [20])	other results
CC[C@@]12C=C(COC(=O)NCCCO)n3c4c(c5ccccc53)CCN(CCC1)[C@H]42	5.04	Active	
CC[C@@]12C=C(CNC(=O)C(C)C)n3c4c(c5ccccc53)CCN(CCC1)[C@H]42	5.14	Active	
CC[C@@]12C=C(CNC(N)=O)n3c4c(c5ccccc53)CCN(CCC1)[C@H]42		inactive	
CCC(=O)NCC1=C[C@]2(CC)CCCN3CCc4c(n1c1ccccc41)[C@@H]32	5.52	Active	
CC[C@@]12C=C(COC(=O)c3ccccc3)n3c4c(c5ccccc53)CCN(CCC1)[C@H]42		inactive	
CC[C@@]12C=C(C(=O)N3CCCCC3)n3c4c(c5ccccc53)CCN(CCC1)[C@H]42	5.31	Active	
CC[C@@]12C=C(CNCc3ccccc3)n3c4c(c5ccccc53)CCN(CCC1)[C@H]42		inactive	
CC[C@@]12C=C(C(=O)NCCO)n3c4c(c5ccccc53)CCN(CCC1)[C@H]42	6.02	Active	
CC[C@@]12C=C(C(=O)OC(C)C)n3c4c(c5ccccc53)CCN(CCC1)[C@H]42	5.34	Active	
CC[C@@]12C=C(C(=O)NC3CCCC3)n3c4c(c5ccccc53)CCN(CCC1)[C@H]42	4.89	Active	
CC[C@@]12C=C(C(=O)N3CCCC3)n3c4c(c5ccccc53)CCN(CCC1)[C@H]42	4.88	Active	
CC[C@@]12C=C(COC(=O)NC)n3c4c(c5ccccc53)CCN(CCC1)[C@H]42	5.78	Active	
CC[C@@]12C=C(COC(=O)C(C)C)n3c4c(c5ccccc53)CCN(CCC1)[C@H]42	5.76	Active	
CC[C@@]12C=C(C(=O)OC)n3c4c(c5ccccc53)CCN(CCC1)[C@H]42 [APOVINCAMINE]	5.30	Active	
CCNC(=O)C1=C[C@]2(CC)CCCN3CCc4c(n1c1ccccc41)[C@@H]32	6.70	Active	
CC[C@@]12C=C(C(=O)N3CCOCC3)n3c4c(c5ccccc53)CCN(CCC1)[C@H]42	4.96	Active	
CC[C@@]12C=C(CNC(=O)NC)n3c4c(c5ccccc53)CCN(CCC1)[C@H]42		inactive	
CC[C@@]12C=C(COC(=O)Nc3ccccc3)n3c4c(c5ccccc53)CCN(CCC1)[C@H]42		inactive	
CC[C@@]12C=C(CNC(=O)C3CC3)n3c4c(c5ccccc53)CCN(CCC1)[C@H]42	5.36	Active	
CCCNCC1=C[C@]2(CC)CCCN3CCc4c(n1c1ccccc41)[C@@H]32		inactive	
CCCCNC(=O)C1=C[C@]2(CC)CCCN3CCc4c(n1c1ccccc41)[C@@H]32	5.03	Active	
CC[C@@]12C=C(C(=O)NC(C)C)n3c4c(c5ccccc53)CCN(CCC1)[C@H]42	4.97	Active	
CCCCCNC(=O)C1=C[C@]2(CC)CCCN3CCc4c(n1c1ccccc41)[C@@H]32		inactive	
CCCOC(=O)C1=C[C@]2(CC)CCCN3CCc4c(n1c1ccccc41)[C@@H]32	5.26	Active	
CCCNC(=O)C1=C[C@]2(CC)CCCN3CCc4c(n1c1ccccc41)[C@@H]32	6.43	Active	
